Biological target: T1, Bifunctional methylenetetrahydrofolate dehydrogenase/cyclohydrolase, mitochondrial (Homo sapiens, UniProt P13995)
T1 sequence (P13995 whole entry): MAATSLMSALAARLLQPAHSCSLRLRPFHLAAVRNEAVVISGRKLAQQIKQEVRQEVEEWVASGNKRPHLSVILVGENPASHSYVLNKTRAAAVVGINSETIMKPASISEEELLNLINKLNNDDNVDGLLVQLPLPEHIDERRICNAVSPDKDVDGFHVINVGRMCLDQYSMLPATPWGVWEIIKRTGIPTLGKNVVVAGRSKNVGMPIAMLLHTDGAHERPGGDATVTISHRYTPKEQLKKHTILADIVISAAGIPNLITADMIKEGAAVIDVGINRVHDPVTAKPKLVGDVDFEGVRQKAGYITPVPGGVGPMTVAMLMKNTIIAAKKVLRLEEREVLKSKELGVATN
Assay: Inhibition of MTHFD2
Method: DMSO was used as negative control. The serial dilution in DMSO, from compound DMSO stock solution, was created by dispensing from a 384-well low dead volume microplate (LP-0200, Labcyte) and a 384-well polypropylene microplate 2.0 (PP-0200, Labcyte). A total of 2.5 μL MTHFD2 was preincubated with compound or DMSO for 10 min. The enzymatic reaction was initiated by adding 2.5 μL folitixorin (F680350, Toronto Research Chemicals). For background control, 5 μL buffer was added to the well. […] The final concentrations of all reagents in a total assay volume of 5 μL per well were 50 mmol/L Tris-HCl at pH 8.0, 100 mmol/L NaCl, 5 mmol/L MgCl2, 25 mmol/L Na3PO4 at pH 8.0, 0.005% (v/v) Tween-20, and 2 mmol/L 2-mercaptoethanol. After 15 min reaction time, 5 μL NAD(P)H-Glo detection reagent (G9061 or G9062, Promega) was dispensed in all wells and the plate was incubated for 60 min. Luminescence was measured on a plate reader (Envision, PerkinElmer or Sense, Hidex). The light signal produced is proportional to the amount of NAD(P)H in the sample.

IC50: 36 nM
Compound: Nc1nc(N)c(NC(=O)Nc2ccc(C(=O)N[C@@H](CCc3ccccc3)C(=O)O)nc2)c(=O)[nH]1 [US11504368, Example 14]
